Source: PubChem BioAssay (NCI)
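All cell lines were grown in 96-well plates and treated with compound for 48 hours. GI50 = concentration required for 50% inhibition of growth. TGI is the concentration that stops growth completely.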

What was measured:
Experiment in all cases: DTP human tumour cell line panel, 48 h
[1] = test system: MCF7 breast
[2] = test system: MDA-MB-231 breast
[3] = test system: SW-620 colon
[4] = test system: NCI/ADR-RES ovarian
[5] = test system: NCI-H460 lung
[6] = test system: HOP-92 NSCLC
[7] = test system: LOX IMVI melanoma
[8] = test system: SF-295 CNS
[9] = test system: COLO 205 colon
[10] = test system: HCC-2998 colon
[11] = test system: SK-MEL-5 melanoma
[12] = test system: MOLT-4 leukemia
[13] = test system: SNB-75 CNS
[14] = test system: U251 CNS
[15] = test system: CCRF-CEM leukemia
[16] = test system: MALME-3M melanoma
[17] = test system: SF-268 CNS
[18] = test system: ACHN renal
[19] = test system: SN12C renal
[20] = test system: HCT-15 colon
[21] = test system: SK-OV-3 ovarian
[22] = test system: TK-10 renal
[23] = test system: EKVX NSCLC
[24] = test system: DU-145 prostate
[25] = test system: SK-MEL-28 melanoma
[26] = test system: SR leukemia
[27] = test system: NCI-H23 lung
[28] = test system: BT-549 breast
[29] = test system: OVCAR-4 ovarian
[30] = test system: KM12 colon
[31] = test system: 786-0 renal
[32] = test system: HS 578T breast
[33] = test system: RXF 393 renal
[34] = test system: PC-3 prostate
[35] = test system: NCI-H522 lung
[36] = test system: HCT-116 colon
[37] = test system: OVCAR-3 ovarian
[38] = test system: A549 NSCLC
[39] = test system: HL-60(TB) leukemia
[40] = test system: SK-MEL-2 melanoma
[41] = test system: IGROV1 ovarian
[42] = test system: OVCAR-5 ovarian
[43] = test system: CAKI-1 renal
[44] = test system: MDA-MB-435
[45] = test system: T-47D breast
[46] = test system: UACC-62 melanoma
[47] = test system: OVCAR-8 ovarian
[48] = test system: RPMI-8226 leukemia
[49] = test system: HT29 colon
[50] = test system: M14 melanoma
[51] = test system: HOP-62 NSCLC
[52] = test system: NCI-H226 lung
[53] = test system: SNB-19 CNS
[54] = test system: SF-539 CNS
[55] = test system: UO-31 renal
[56] = test system: K-562 leukemia
[57] = test system: UACC-257 melanoma
[58] = test system: A498 renal

Question: `O=P(O)(O)OCC1OC(n2cnc3c(NCc4ccco4)ncnc32)C(O)C1O` (stereo not given) was tested. Which GI50 [1] did it give?
Answer: The GI50 was 0.776 µM.

Question: And the TGI [1]?
Answer: The TGI was greater than 21.6 µM.

Question: What about the GI50 [2] of the same compound?
Answer: Its GI50 is 0.479 µM.

Question: What about the TGI [2] of the same compound?
Answer: Its TGI is 13.9 µM.

Question: And the GI50 [3]?
Answer: Its GI50 is 0.993 µM.

Question: And the TGI [3]?
Answer: Its TGI is greater than 44.3 µM.

Question: And the GI50 [4]?
Answer: Its GI50 is 1.62 µM.

Question: And the TGI [4]?
Answer: The TGI was greater than 53.7 µM.

Question: What about the GI50 [5] of the same compound?
Answer: The GI50 was 3.04 µM.

Question: And the TGI [5]?
Answer: The TGI was 21.4 µM.

Question: And the GI50 [6]?
Answer: Its GI50 is 1.36 µM.

Question: And the TGI [6]?
Answer: Its TGI is 13.4 µM.

Question: And the GI50 [7]?
Answer: Its GI50 is 0.374 µM.

Question: What about the TGI [7] of the same compound?
Answer: Its TGI is 1.47 µM.

Question: And the GI50 [8]?
Answer: The GI50 was 2.53 µM.

Question: And the TGI [8]?
Answer: Its TGI is greater than 35.1 µM.

Question: And the GI50 [9]?
Answer: Its GI50 is 2.12 µM.

Question: And the TGI [9]?
Answer: Its TGI is 9.88 µM.

Question: And the GI50 [10]?
Answer: Its GI50 is 3.61 µM.

Question: What about the TGI [10] of the same compound?
Answer: Its TGI is greater than 30.2 µM.

Question: What about the GI50 [11] of the same compound?
Answer: Its GI50 is 3.89 µM.

Question: What about the TGI [11] of the same compound?
Answer: Its TGI is greater than 37.4 µM.

Question: What about the GI50 [12] of the same compound?
Answer: Its GI50 is 0.339 µM.

Question: What about the TGI [12] of the same compound?
Answer: The TGI was 1.9 µM.

Question: What about the GI50 [13] of the same compound?
Answer: The GI50 was 4.18 µM.

Question: What about the TGI [13] of the same compound?
Answer: The TGI was greater than 30.6 µM.

Question: What about the GI50 [14] of the same compound?
Answer: The GI50 was 4.33 µM.

Question: And the TGI [14]?
Answer: The TGI was greater than 100 µM.

Question: And the GI50 [15]?
Answer: The GI50 was 0.315 µM.

Question: What about the TGI [15] of the same compound?
Answer: Its TGI is 1.14 µM.

Question: What about the GI50 [16] of the same compound?
Answer: Its GI50 is 5.09 µM.

Question: And the TGI [16]?
Answer: The TGI was 40.9 µM.

Question: And the GI50 [17]?
Answer: Its GI50 is 3.62 µM.

Question: And the TGI [17]?
Answer: Its TGI is greater than 79.6 µM.

Question: What about the GI50 [18] of the same compound?
Answer: The GI50 was 2.2 µM.

Question: What about the TGI [18] of the same compound?
Answer: Its TGI is greater than 100 µM.

Question: And the GI50 [19]?
Answer: Its GI50 is 0.989 µM.

Question: What about the TGI [19] of the same compound?
Answer: The TGI was greater than 37.2 µM.

Question: What about the GI50 [20] of the same compound?
Answer: The GI50 was 0.701 µM.

Question: What about the TGI [20] of the same compound?
Answer: The TGI was greater than 56.9 µM.

Question: And the GI50 [21]?
Answer: Its GI50 is 2.34 µM.

Question: What about the TGI [21] of the same compound?
Answer: Its TGI is 8.73 µM.

Question: What about the GI50 [22] of the same compound?
Answer: Its GI50 is 1.77 µM.

Question: And the TGI [22]?
Answer: Its TGI is greater than 43.9 µM.

Question: And the GI50 [23]?
Answer: The GI50 was 2.82 µM.

Question: What about the TGI [23] of the same compound?
Answer: The TGI was greater than 41 µM.

Question: And the GI50 [24]?
Answer: Its GI50 is 0.57 µM.

Question: And the TGI [24]?
Answer: The TGI was 2.4 µM.

Question: What about the GI50 [25] of the same compound?
Answer: The GI50 was 16.2 µM.

Question: And the TGI [25]?
Answer: Its TGI is greater than 100 µM.

Question: What about the GI50 [26] of the same compound?
Answer: The GI50 was 1.11 µM.

Question: What about the TGI [26] of the same compound?
Answer: The TGI was 3.93 µM.

Question: What about the GI50 [27] of the same compound?
Answer: Its GI50 is 3.84 µM.

Question: And the TGI [27]?
Answer: The TGI was greater than 70.5 µM.

Question: What about the GI50 [28] of the same compound?
Answer: The GI50 was 0.575 µM.

Question: And the TGI [28]?
Answer: The TGI was 3.85 µM.

Question: And the GI50 [29]?
Answer: The GI50 was 2.62 µM.

Question: What about the TGI [29] of the same compound?
Answer: Its TGI is greater than 41 µM.

Question: What about the GI50 [30] of the same compound?
Answer: The GI50 was 4.44 µM.

Question: And the TGI [30]?
Answer: Its TGI is greater than 42.6 µM.

Question: What about the GI50 [31] of the same compound?
Answer: Its GI50 is 3.35 µM.

Question: What about the TGI [31] of the same compound?
Answer: The TGI was greater than 49.9 µM.

Question: And the GI50 [32]?
Answer: The GI50 was 0.802 µM.

Question: And the TGI [32]?
Answer: The TGI was 7.17 µM.

Question: What about the GI50 [33] of the same compound?
Answer: The GI50 was 0.965 µM.

Question: What about the TGI [33] of the same compound?
Answer: The TGI was 4.95 µM.

Question: What about the GI50 [34] of the same compound?
Answer: Its GI50 is 0.927 µM.

Question: What about the TGI [34] of the same compound?
Answer: The TGI was 12.3 µM.

Question: What about the GI50 [35] of the same compound?
Answer: The GI50 was 1.14 µM.

Question: And the TGI [35]?
Answer: The TGI was 19 µM.

Question: And the GI50 [36]?
Answer: Its GI50 is 0.41 µM.

Question: What about the TGI [36] of the same compound?
Answer: The TGI was 1.85 µM.

Question: What about the GI50 [37] of the same compound?
Answer: The GI50 was 0.422 µM.

Question: What about the TGI [37] of the same compound?
Answer: Its TGI is 1.65 µM.

Question: What about the GI50 [38] of the same compound?
Answer: Its GI50 is 2.73 µM.

Question: What about the TGI [38] of the same compound?
Answer: The TGI was greater than 37.8 µM.

Question: What about the GI50 [39] of the same compound?
Answer: Its GI50 is 0.231 µM.

Question: And the TGI [39]?
Answer: The TGI was 0.601 µM.

Question: And the GI50 [40]?
Answer: Its GI50 is 11.1 µM.

Question: What about the TGI [40] of the same compound?
Answer: The TGI was greater than 50.7 µM.

Question: And the GI50 [41]?
Answer: The GI50 was 1.39 µM.

Question: What about the GI50 [42] of the same compound?
Answer: The GI50 was 5.64 µM.

Question: What about the TGI [42] of the same compound?
Answer: The TGI was greater than 100 µM.

Question: What about the GI50 [43] of the same compound?
Answer: The GI50 was 0.596 µM.

Question: And the TGI [43]?
Answer: Its TGI is 3.01 µM.

Question: What about the GI50 [44] of the same compound?
Answer: Its GI50 is 2.36 µM.

Question: What about the TGI [44] of the same compound?
Answer: The TGI was greater than 25.7 µM.

Question: And the GI50 [45]?
Answer: The GI50 was 3.24 µM.

Question: And the TGI [45]?
Answer: Its TGI is 17.3 µM.

Question: What about the GI50 [46] of the same compound?
Answer: The GI50 was 2.71 µM.

Question: And the TGI [46]?
Answer: The TGI was 12.5 µM.

Question: What about the GI50 [47] of the same compound?
Answer: The GI50 was 0.861 µM.

Question: What about the TGI [47] of the same compound?
Answer: The TGI was 6.9 µM.

Question: What about the GI50 [48] of the same compound?
Answer: Its GI50 is 0.298 µM.

Question: What about the TGI [48] of the same compound?
Answer: The TGI was 2.66 µM.

Question: What about the GI50 [49] of the same compound?
Answer: The GI50 was 2.98 µM.

Question: What about the TGI [49] of the same compound?
Answer: The TGI was greater than 100 µM.

Question: And the GI50 [50]?
Answer: Its GI50 is 3.55 µM.

Question: What about the TGI [50] of the same compound?
Answer: Its TGI is greater than 41 µM.

Question: And the GI50 [51]?
Answer: Its GI50 is 2.24 µM.

Question: And the TGI [51]?
Answer: Its TGI is 19.4 µM.

Question: And the GI50 [52]?
Answer: The GI50 was 7.13 µM.

Question: And the TGI [52]?
Answer: The TGI was greater than 56.5 µM.

Question: And the GI50 [53]?
Answer: Its GI50 is 4.18 µM.

Question: And the TGI [53]?
Answer: Its TGI is greater than 100 µM.

Question: What about the GI50 [54] of the same compound?
Answer: The GI50 was 2.7 µM.

Question: What about the TGI [54] of the same compound?
Answer: Its TGI is 12.5 µM.

Question: What about the GI50 [55] of the same compound?
Answer: Its GI50 is 0.993 µM.

Question: What about the TGI [55] of the same compound?
Answer: Its TGI is greater than 26.5 µM.

Question: What about the GI50 [56] of the same compound?
Answer: Its GI50 is 3.01 µM.

Question: What about the TGI [56] of the same compound?
Answer: Its TGI is greater than 57.5 µM.

Question: What about the GI50 [57] of the same compound?
Answer: Its GI50 is greater than 100 µM.

Question: What about the TGI [57] of the same compound?
Answer: Its TGI is greater than 100 µM.

Question: What about the GI50 [58] of the same compound?
Answer: The GI50 was 3.32 µM.

Question: What about the TGI [58] of the same compound?
Answer: The TGI was 11.7 µM.
